Assay [1] relates to healthy and asthmatic subjects. As to the kind of experiment: Methacholine challenge testing (PC20, airway hyper-responsiveness). It counts as in vivo, human. As to conditions: median. The procedure:
(§1) (A) Volume of air exhaled in the first second of a forced expiration (FEV1), a measure of airway obstruction. (B) Improvement in FEV1 after 4 puffs (360 μg) of albuterol (bronchodilator reversibility testing). (C) Provocative concentration of methacholine required to induce a 20% decline in FEV1 (PC20), a measure of airway hyper-responsiveness.
Healthy controls (N=27) had no history of lung disease and lacked airway hyper-responsiveness (PC20 methacholine >16 mg/mL). Certain studies included current smokers without asthma (N=16). Exclusion criteria for all subjects included upper respiratory tract infection in the previous 4 weeks, asthma exacerbation within 6 weeks and current use of salmeterol, astemizole, nedocromil sodium, sodium cromoglycate, methlyxanthines, montelukast or zafirlukast. Subjects underwent baseline evaluation by study physicians (including spirometry and methacholine challenge testing as described previously). Subjects also underwent allergen skin prick testing (ASPT) with a panel of 12 aeroallergens, a positive control and a negative control (Table 6).
The minimal concentration of methacholine in mg/ml required to induce a decrease in FEV1 of 20% (PC20, measured at a screening visit one week prior to bronchoscopy) is a measure of bronchial hyperresponsiveness. This is a measure of bronchial hyper-reactivity (BHR).
(§2) The asthmatic subjects were further analyzed with respect to additional demographic characteristics and clinical features as those described in Example 7. […] This difference in AHR was apparent despite inclusion criteria that required all asthmatics to have significant AHR (all asthmatics <8 mg/ml, all healthy controls >20 mg/ml).

In assay [2] the test system is healthy and asthmatic subjects. In words: Bronchodilator reversibility testing: improvement in FEV1 after albuterol. As to conditions: 4 puffs (360 μg) of albuterol, mean ± SD. It is filed as in vivo, human. Here is the method: as §1
For the purposes of identifying subsets of patients with asthma who differ with respect to the molecular mechanism underlying their airway inflammation and the distinct inflammatory, pathological and clinical phenotypes characteristic of these subsets, we first conducted new analyses on our previously generated epithelial cell microarray data, and we then supplemented these new analyses with review of additional and detailed clinical characterization data (including data on bronchodilator reversibility and allergen skin test reactivity) from these same subjects and newly generated data, including: (i) gene expression profiles in homogenates of bronchial biopsies and alveolar macrophages; (ii) quantitative measures of subepithelial collagen and airway epithelial mucin in bronchial biopsies; (iii) total and differential cell counts in BAL.
as §2

Experimental findings from patent US20110123530A1, “COMPOSITIONS AND METHODS FOR TREATING AND DIAGNOSING ASTHMA” (priority 2008, published 2011) are described below.

For `CC(=O)OC(C)C[N+](C)(C)C` (stereo not drawn) [Methacholine, methacholine], the “Methacholine PC20 (provocative concentration required to cause a 20% decline in FEV1)” value amounted to 64 mg/mL in assay [1] (Healthy Control); 0.93 mg/mL in assay [1] (asthma, IL13 Signature Low); 0.27 mg/mL in assay [1] (asthma, IL-13 Signature High).

`CC(C)(C)NCC(O)c1ccc(O)c(CO)c1` (stereo not drawn) [albuterol]: the “ΔFEV1 with albuterol (% of baseline)” value in assay [2] (Healthy Control) is 2.7 ± 3.4% of baseline; in assay [2] (asthma, IL13 Signature Low), 9.7 ± 7.4% of baseline; in assay [2] (asthma, IL-13 Signature High), 12.5 ± 9.8 % of baseline.
